# Experimental data from ChEMBL document CHEMBL5523717, “Pyrrole-containing hybrids as potential anticancer agents: An insight into current developments and structure-activity relationships” (Eur J Med Chem, 2024).
# Columns and labels:
# Mushroom tyrosinase [1] = biological target: T1, Mushroom tyrosinase (Agaricus bisporus, UniProt O42713+Q00024+C7FF04+C7FF05); experiment: Inhibition of mushroom Tyrosinase; assay type: protein assay
# Tyrosinase = Tyrosinase (Homo sapiens, UniProt P14679); experiment: Inhibition of human tyrosinase
# HUVEC = experiment: Antiproliferative activity against VEGF-stimulated HUVEC assessed as inhibition of cell growth incubated for 3 days by MTT assay; assay type: functional, cell-based; conditions: Homo sapiens, 72 h
# MCF-12A = experiment: Cytotoxicity against human MCF-12A cells assessed as reduction in cell viability incubated for 24 hrs by MTT assay; assay type: functional, cell-based
# A549 [2] = experiment: Cytotoxicity against human A549 cells assessed as reduction in cell growth incubated for 24 hrs by MTT assay; assay type: functional, cell-based; conditions: A549, 24 h
# MCF7 [3] = experiment: Cytotoxicity against human MCF7 cells assessed as reduction in cell growth incubated for 24 hrs by MTT assay; assay type: functional, cell-based; conditions: MCF7, 24 h
# [4] = Cytotoxicity against human HFL1 cells assessed as cell growth inhibition incubated for 24 hrs by MTT assay; assay type: toxicity, cell-based
# HCT-15 = experiment: Growth inhibition of human HCT-15 cells incubated for 72 hrs by SRB assay; assay type: functional
# MCF7 [5] = experiment: Cytotoxicity against human MCF7 cells assessed as reduction in cell growth incubated for 72 hrs by MTT assay; assay type: functional, cell-based; conditions: MCF7, 72 h
# HepG2 = experiment: Cytotoxicity against human HepG2 cells assessed as reduction in cell growth incubated for 72 hrs by MTT assay; assay type: functional, cell-based; conditions: HepG2, 72 h
# [6] = biological target: T2, Hepatocyte growth factor receptor (Homo sapiens, UniProt P08581); experiment: Inhibition of c-Met (unknown origin) by mobility shift assay
# A549 [7] = experiment: Cytotoxicity against human A549 cells assessed as reduction in cell growth incubated for 72 hrs by MTT assay; assay type: functional, cell-based; conditions: A549, 72 h
# DNA topoisomerase 1 = DNA topoisomerase 1 (Homo sapiens, UniProt P11387); experiment: Inhibition of DNA topoisomerase I (unknown origin)
# [8] = biological target: Kinesin-like protein KIF11 (Homo sapiens, UniProt P52732); experiment: Inhibition of KSP/Eg5 (unknown origin)
# K562 [9] = experiment: Antiproliferative activity against human K562 cells assessed as reduction in cell growth incubated for 48 hrs by MTT assay; assay type: functional, cell-based; conditions: K562, 48 h
# A549 [10] = experiment: Antiproliferative activity against human A549 cells transfected with sh-empty vector assessed as reduction in cell growth incubated for 48 hrs by MTT assay; assay type: functional, cell-based; conditions: A549, 48 h
# A549 [11] = experiment: Antiproliferative activity against human A549 cells transfected with sh-EZH2 vector assessed as reduction in cell growth incubated for 48 hrs by MTT assay; assay type: functional, cell-based; conditions: A549, 48 h
# A549 [12] = experiment: Anticancer activity against human A549 cells assessed as inhibition of cell growth; assay type: functional, cell-based
# U-251 = experiment: Anticancer activity against human U-251 cells assessed as reduction in cell growth; assay type: functional, cell-based
# [13] = biological target: Lysine-specific histone demethylase 1A (Homo sapiens, UniProt O60341); experiment: Inhibition of LSD1 (unknown origin)
# [14] = biological target: Vascular endothelial growth factor receptor 2 (Homo sapiens, UniProt P35968); experiment: Inhibition of VEGFR-2 (unknown origin) by ELISA analysis
# [15] = Cytotoxicity against mouse NIH3T3 cells assessed as reduction in cell viability incubated for 24 hrs by MTT assay; assay type: toxicity, cell-based
# T47D = experiment: Cytotoxicity against human T47D cells assessed as reduction in cell viability by MTT assay; assay type: functional, cell-based
# A2780 = experiment: Cytotoxicity against human A2780 cells assessed as reduction in cell growth by MTT assay; assay type: functional, cell-based
# A-431 = experiment: Cytotoxicity against human A-431 cells assessed as reduction in cell growth by MTT assay; assay type: functional, cell-based
# MCF7 [16] = experiment: Cytotoxicity against human MCF7 cells assessed as reduction in cell growth by MTT assay; assay type: functional, cell-based
# HT-29 = experiment: Cytotoxicity against human HT-29 cells assessed as reduction in cell growth by MTT assay; assay type: functional, cell-based
# DU-145 = experiment: Cytotoxicity against human DU-145 cells assessed as reduction in cell growth by MTT assay; assay type: functional, cell-based
# [17] = biological target: Poly [ADP-ribose] polymerase 2 (Homo sapiens, UniProt Q9UGN5); experiment: Inhibition of PARP-2 (unknown origin)
# MDA-MB-436 = experiment: Cytotoxicity against human MDA-MB-436 cells assessed as reduction in cell viability incubated for 96 hrs by MTT assay; assay type: functional
# MCF7 [18] = experiment: Cytotoxicity against human MCF7 cells assessed as reduction in cell viability incubated for 96 hrs by MTT assay; assay type: functional
# [19] = biological target: Poly [ADP-ribose] polymerase 1 (Homo sapiens, UniProt P09874); experiment: Inhibition of PARP-1 (unknown origin)
# MDA-MB-231 = experiment: Cytotoxicity against human MDA-MB-231 cells assessed as reduction in cell viability by MTT assay; assay type: functional, cell-based
# CNE-2 = experiment: Anticancer activity against human CNE-2 cells assessed as reduction in cell growth; assay type: functional, cell-based
# SUNE1 = experiment: Anticancer activity against human SUNE1 cells assessed as reduction in cell growth; assay type: toxicity, cell-based
# K562 [20] = experiment: Antiproliferative activity against human K562 cells assessed as reduction in cell growth incubated for 48 hrs by WST-8 assay; assay type: functional, cell-based; conditions: K562, 48 h
# MKN-45 = experiment: Antiproliferative activity against human MKN-45 cells assessed as reduction in cell growth incubated for 72 hrs by CCK-8 assay; assay type: functional, cell-based; conditions: MKN-45, 72 h
# [21] = biological target: T2, Hepatocyte growth factor receptor; experiment: Inhibition of human c-Met
# Mushroom tyrosinase [22] = biological target: T1, Mushroom tyrosinase; experiment: Inhibition of mushroom tyrosinase using L-DOPA as substrate preincubated for 10 mins followed by substrate addition and measured after 15 mins by spectrophotometric method; assay type: protein assay
# Vascular endothelial growth factor receptor 2, sequence (P35968 whole entry): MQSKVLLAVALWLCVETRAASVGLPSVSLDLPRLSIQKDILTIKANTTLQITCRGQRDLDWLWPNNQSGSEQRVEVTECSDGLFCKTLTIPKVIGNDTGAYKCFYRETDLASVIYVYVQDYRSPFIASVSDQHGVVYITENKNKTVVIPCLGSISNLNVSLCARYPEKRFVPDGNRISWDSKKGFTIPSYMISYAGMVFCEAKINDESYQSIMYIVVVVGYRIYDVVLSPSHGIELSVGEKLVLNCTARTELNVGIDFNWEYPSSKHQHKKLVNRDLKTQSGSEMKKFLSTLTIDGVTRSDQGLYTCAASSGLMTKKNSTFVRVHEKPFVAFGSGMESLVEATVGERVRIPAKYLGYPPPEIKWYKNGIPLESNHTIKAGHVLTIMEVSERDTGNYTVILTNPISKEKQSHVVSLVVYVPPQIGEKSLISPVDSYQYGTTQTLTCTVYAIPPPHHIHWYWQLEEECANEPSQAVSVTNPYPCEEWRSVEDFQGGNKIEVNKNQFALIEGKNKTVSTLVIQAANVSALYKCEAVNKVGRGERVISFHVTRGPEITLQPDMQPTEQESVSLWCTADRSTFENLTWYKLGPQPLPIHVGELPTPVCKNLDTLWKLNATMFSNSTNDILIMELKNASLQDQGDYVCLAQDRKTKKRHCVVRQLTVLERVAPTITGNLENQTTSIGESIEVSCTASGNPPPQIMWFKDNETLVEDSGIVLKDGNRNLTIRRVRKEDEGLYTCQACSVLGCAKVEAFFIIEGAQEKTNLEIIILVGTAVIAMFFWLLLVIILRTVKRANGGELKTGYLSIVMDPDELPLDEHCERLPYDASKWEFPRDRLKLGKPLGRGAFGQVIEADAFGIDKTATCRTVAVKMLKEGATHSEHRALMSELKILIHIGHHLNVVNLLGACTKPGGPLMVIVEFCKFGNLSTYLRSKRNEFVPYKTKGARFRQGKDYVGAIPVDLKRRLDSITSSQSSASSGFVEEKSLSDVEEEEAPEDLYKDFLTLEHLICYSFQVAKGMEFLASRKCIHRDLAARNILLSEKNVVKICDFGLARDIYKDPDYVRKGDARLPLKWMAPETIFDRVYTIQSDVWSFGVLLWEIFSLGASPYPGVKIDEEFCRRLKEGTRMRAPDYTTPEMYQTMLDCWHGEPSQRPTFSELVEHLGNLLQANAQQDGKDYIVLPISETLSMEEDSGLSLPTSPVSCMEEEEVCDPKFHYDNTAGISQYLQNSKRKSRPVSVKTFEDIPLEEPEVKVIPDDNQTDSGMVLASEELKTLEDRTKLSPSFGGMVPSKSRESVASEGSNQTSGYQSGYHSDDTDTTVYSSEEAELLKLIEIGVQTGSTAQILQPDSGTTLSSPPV
# T2 sequence (P08581 whole entry): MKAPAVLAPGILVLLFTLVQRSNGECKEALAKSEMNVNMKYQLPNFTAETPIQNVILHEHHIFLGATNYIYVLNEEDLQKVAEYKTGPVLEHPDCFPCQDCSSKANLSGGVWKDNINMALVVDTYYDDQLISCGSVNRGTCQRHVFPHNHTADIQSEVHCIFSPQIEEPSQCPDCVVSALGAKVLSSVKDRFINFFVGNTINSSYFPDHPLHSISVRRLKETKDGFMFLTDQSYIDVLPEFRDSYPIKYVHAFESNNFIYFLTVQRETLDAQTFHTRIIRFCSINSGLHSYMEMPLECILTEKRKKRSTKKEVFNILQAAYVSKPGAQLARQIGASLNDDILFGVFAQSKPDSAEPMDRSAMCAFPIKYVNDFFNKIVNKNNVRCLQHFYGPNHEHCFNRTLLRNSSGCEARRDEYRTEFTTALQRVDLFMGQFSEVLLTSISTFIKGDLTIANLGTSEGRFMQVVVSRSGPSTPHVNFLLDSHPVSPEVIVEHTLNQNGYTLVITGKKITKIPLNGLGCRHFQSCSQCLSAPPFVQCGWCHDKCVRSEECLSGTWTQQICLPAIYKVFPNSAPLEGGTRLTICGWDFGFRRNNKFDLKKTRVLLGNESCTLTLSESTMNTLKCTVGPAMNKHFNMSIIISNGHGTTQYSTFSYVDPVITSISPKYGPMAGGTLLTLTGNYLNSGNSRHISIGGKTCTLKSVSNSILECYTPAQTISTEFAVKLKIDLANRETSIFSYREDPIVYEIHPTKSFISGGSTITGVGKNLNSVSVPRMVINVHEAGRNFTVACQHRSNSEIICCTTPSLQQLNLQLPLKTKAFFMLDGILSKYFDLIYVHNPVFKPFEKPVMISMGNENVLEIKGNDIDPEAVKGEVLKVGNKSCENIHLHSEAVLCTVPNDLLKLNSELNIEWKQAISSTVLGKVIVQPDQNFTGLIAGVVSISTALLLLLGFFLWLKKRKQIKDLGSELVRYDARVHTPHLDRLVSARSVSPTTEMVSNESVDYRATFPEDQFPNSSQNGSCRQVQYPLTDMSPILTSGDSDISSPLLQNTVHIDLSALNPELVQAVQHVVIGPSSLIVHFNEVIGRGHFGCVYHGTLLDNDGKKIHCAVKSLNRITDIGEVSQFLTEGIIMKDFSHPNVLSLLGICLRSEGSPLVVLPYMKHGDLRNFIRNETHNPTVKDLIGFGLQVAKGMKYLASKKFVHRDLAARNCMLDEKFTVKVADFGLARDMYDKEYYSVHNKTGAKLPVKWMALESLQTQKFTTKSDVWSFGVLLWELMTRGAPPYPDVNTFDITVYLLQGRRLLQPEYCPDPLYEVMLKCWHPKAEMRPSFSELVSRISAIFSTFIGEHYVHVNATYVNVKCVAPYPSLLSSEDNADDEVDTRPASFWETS
# DNA topoisomerase 1, sequence (P11387 whole entry): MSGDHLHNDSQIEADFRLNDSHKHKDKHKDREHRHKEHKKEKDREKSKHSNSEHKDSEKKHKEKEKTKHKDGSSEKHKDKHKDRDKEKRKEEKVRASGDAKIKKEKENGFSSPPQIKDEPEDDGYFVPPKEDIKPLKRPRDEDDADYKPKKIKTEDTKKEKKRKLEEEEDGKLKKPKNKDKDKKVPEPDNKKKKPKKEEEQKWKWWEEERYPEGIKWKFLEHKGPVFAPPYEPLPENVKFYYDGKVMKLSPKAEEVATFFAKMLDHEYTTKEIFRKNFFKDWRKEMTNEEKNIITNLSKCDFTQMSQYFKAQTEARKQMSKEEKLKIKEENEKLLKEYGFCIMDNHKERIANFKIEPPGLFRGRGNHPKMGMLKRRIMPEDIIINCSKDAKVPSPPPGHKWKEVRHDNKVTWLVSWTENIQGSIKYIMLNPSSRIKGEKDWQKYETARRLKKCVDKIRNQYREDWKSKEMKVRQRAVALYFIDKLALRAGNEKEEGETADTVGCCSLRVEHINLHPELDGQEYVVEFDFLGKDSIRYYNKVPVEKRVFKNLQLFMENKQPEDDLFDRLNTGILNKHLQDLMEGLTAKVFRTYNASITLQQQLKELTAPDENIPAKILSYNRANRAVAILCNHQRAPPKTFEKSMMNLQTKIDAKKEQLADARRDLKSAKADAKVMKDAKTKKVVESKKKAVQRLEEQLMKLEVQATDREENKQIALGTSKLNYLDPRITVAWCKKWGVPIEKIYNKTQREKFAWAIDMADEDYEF
# Kinesin-like protein KIF11, sequence (P52732 whole entry): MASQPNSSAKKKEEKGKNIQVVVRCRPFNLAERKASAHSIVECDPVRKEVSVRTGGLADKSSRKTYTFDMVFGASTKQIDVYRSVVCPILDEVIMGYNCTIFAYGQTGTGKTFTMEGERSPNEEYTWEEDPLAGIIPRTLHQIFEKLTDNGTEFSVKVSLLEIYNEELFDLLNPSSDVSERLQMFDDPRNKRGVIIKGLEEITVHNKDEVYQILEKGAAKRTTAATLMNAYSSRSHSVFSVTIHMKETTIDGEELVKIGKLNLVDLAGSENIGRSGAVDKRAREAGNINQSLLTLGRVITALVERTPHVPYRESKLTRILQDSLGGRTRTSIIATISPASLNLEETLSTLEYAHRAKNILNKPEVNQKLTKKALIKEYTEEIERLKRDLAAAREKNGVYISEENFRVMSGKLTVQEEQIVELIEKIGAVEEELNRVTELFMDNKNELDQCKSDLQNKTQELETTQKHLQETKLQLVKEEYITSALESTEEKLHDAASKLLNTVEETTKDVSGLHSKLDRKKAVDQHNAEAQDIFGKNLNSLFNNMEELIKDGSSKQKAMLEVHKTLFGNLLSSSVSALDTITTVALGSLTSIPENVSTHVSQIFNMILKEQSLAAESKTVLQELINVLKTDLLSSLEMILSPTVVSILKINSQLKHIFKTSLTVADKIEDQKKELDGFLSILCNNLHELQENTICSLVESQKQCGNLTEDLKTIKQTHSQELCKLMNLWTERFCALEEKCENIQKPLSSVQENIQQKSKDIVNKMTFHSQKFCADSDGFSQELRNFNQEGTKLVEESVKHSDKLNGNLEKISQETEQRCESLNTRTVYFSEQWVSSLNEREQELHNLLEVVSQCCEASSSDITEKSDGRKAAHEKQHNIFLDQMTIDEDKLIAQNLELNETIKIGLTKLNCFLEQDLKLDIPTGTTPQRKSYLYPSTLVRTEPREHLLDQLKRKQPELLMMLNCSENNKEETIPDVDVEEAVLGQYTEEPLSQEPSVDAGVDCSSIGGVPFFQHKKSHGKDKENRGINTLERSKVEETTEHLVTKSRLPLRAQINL
# Tyrosinase, sequence (P14679 whole entry): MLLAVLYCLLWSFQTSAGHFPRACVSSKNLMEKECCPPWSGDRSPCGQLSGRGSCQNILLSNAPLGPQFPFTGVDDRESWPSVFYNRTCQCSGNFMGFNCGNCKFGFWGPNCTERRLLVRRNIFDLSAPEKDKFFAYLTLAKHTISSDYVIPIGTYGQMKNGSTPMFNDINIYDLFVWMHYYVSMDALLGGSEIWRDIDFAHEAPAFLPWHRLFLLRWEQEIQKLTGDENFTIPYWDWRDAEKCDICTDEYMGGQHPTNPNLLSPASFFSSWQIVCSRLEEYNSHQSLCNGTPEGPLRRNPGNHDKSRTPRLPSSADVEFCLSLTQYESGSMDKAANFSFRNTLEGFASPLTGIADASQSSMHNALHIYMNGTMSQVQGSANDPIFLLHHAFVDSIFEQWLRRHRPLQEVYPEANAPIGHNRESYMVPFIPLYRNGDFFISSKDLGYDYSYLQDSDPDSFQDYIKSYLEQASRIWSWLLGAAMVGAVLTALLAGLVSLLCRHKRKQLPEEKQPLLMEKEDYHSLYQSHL
compound,measurement,setting,value
NC(=S)N/N=C/c1ccc[nH]1,IC50,Mushroom tyrosinase [1],3.99 µM
O=C(N/N=C/c1ccc(O)cc1)c1cc2ccccc2[nH]1,IC50,Mushroom tyrosinase [1],0.07 µM
same,IC50,Tyrosinase,175 µM
Cc1c(OCC(O)CN2CCN(C)CC2)cn2ncnc(Oc3ccc(NC(=O)C4(C(=O)Nc5ccc(F)cc5)CC4)cc3F)c12 (configuration not stated),IC50,HUVEC,5 µM
O=C(NNC(=S)Nc1ccc(Br)cc1)c1cc2c([nH]c3ccccc32)c(-c2cccc(O)c2)n1,IC50,MCF-12A,30.2 µM
same,IC50,A549 [2],3.63 µM
same,IC50,MCF7 [3],3.59 µM
CSc1nnc(-c2cc3c([nH]c4ccccc43)c(-c3cccc(O)c3)n2)o1,IC50,MCF-12A,38.2 µM
same,IC50,A549 [2],4.57 µM
same,IC50,MCF7 [3],6.41 µM
COc1cccc2c1c(C(=O)C(=O)Nc1cc[nH]n1)cn2Cc1ccc(F)cc1,IC50,Mushroom tyrosinase [1],372 µM
COc1ccc(OC)c(-c2nc(/C=C3/C(=O)N(Cc4ccccc4)c4ccc(Br)cc43)cc3c2[nH]c2ccccc23)c1,IC50 at 24 h,[4],49.8 µM
same,GI50,HCT-15,0.89 µM
Cc1c(C(=O)Nc2ccc(Oc3ncnc4[nH]ccc34)c(F)c2)nnn1-c1ccc(F)cc1,IC50,MCF7 [5],2.9 µM
same,IC50,HepG2,2.03 µM
same,IC50,[6],0.79 µM
same,IC50,A549 [7],4.79 µM
Cc1ccc(NC(=S)NNC(=O)c2cc3c([nH]c4ccccc43)c(-c3cccc(O)c3)n2)cc1,IC50,DNA topoisomerase 1,28.1 µM
same,IC50,MCF-12A,16 µM
same,IC50,A549 [2],2.57 µM
same,IC50,[8],18.8 µM
same,IC50,MCF7 [3],6.57 µM
Cc1cc(C)c(CNC(=O)c2c(C)cn(Cc3ccc(CC(F)(F)F)cc3)c2C)c(=O)[nH]1,IC50,K562 [9],58.7 µM
same,IC50,A549 [10],72.8 µM
same,IC50,A549 [11],270 µM
COc1cccc2c1c(C(C)=O)cn2Cc1ccc(F)cc1,IC50,Mushroom tyrosinase [1],224 µM
CC(=O)n1cc(C(=O)OC(C)C)c(C#Cc2ccc(Cl)cc2)c1C(=O)OC(C)C,IC50,A549 [12],3.49 µM
same,IC50,U-251,2.29 µM
CNC(=S)N/N=C/c1ccc[nH]1,IC50,Mushroom tyrosinase [1],344.83 µM
CCOCc1cccc(NC(=O)c2cc3sccc3n2C)c1CCOc1ccc(OC[C@@H]2CCNC2)cc1,IC50,[13],0.0078 µM
CNC(=O)c1ccccc1Sc1ccc2c(/N=N/c3cc(C)[nH]c3C)n[nH]c2c1,IC50,HUVEC,44 µM
C=c1[nH]c2ccc(Br)cc2/c1=C/c1cc2c([nH]1)CN(CCN(CC)CC)C2=O,IC50,[14],24.9 µM
Cc1c(C(=O)C(=O)Nc2ccncc2)cc(-c2ccccc2)n1-c1ccccc1,IC50 at 24 h,[15],> 100 µM
same,IC50,T47D,11.8 µM
O=C(NCc1ccccc1)C(CNC(=O)C1C(C(=O)O)[C@@H]2CC[C@H]1O2)Cc1ccc[nH]1 (some centres not stated),IC50,A2780,0.017 µM
same,IC50,A-431,0.017 µM
same,IC50,MCF7 [16],0.017 µM
same,IC50,HT-29,0.017 µM
same,IC50,DU-145,0.017 µM
CC(C)NCc1ccc(-c2[nH]c3cccc4c3c2C=NNC4=O)cc1,IC50,[17],0.00884 µM
same,CC50,MDA-MB-436,0.98 µM
same,CC50,MCF7 [18],22.3 µM
same,IC50,[19],0.014 µM
CCN1CCC(Oc2ccc(OCCc3ccccc3NC(=O)c3cc4sccc4n3C)cc2)CC1,IC50,[13],0.451 µM
Cc1c(C(=O)C(=O)Nc2ccncc2)cc(-c2ccccc2)n1-c1ccc(F)cc1,IC50 at 24 h,[15],> 100 µM
same,IC50,MDA-MB-231,11.8 µM
S=C(N/N=C/c1ccc[nH]1)Nc1ccccc1,IC50,Mushroom tyrosinase [1],94.23 µM
COCc1cccc(NC(=O)c2cc3sccc3n2C)c1CCOc1ccc(OC2CCNCC2)cc1,IC50,[13],0.075 µM
O=C(CN1CCCCC1)Nc1cccc(-c2cc3ccccc3[nH]2)c1,IC50,[14],1.14 µM
O=C(N/N=C/c1ccc([N+](=O)[O-])n1Cc1cccc(F)c1)c1cccc(O)c1O,IC50,CNE-2,4.43 µM
same,IC50,SUNE1,0.08 µM
CCNC(=S)NNC(=O)c1cc2c([nH]c3ccccc32)c(-c2cccc(O)c2)n1,IC50,DNA topoisomerase 1,28.3 µM
same,IC50,MCF-12A,28.4 µM
same,IC50,A549 [2],4.56 µM
same,IC50,[8],32.3 µM
same,IC50,MCF7 [3],7.2 µM
Cc1cc(NS(=O)(=O)c2ccc(N3C(=O)/C(=C/c4c[nH]c5ccccc45)N=C3c3ccccc3)cc2)no1,IC50,[14],0.07 µM
Cc1cc(NS(=O)(=O)c2ccc(N3C(=O)/C(=C/c4c[nH]c5ccccc45)N=C3c3ccc(Cl)cc3)cc2)no1,IC50,[14],1.61 µM
Cc1cc(C)c(CNC(=O)c2c(C)n(Cc3ccccc3)c3ccc(OCCN4CCCCC4)cc23)c(=O)[nH]1,IC50,K562 [20],52.6 µM
CNC(=O)c1ccc(-c2ccc3ncc(S(=O)(=O)n4ccc5ccccc54)n3c2)cc1F,IC50,MKN-45,0.0099 µM
same,IC50,[21],0.0128 µM
C=Cc1ccccc1-c1ccn(C)c1C#N,IC50,Mushroom tyrosinase [22],0.97 µM
